Data on twelve molecules can be found in PubChem BioAssay (NCI).

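Five compound concentrations were applied to cells in 96-well plates for 48 hours; endpoints were derived by simple linear interpolation of the resulting dose-response curve. GI50 = concentration required for 50% inhibition of growth. TGI is the concentration that stops growth completely.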

Among the test systems are SK-MEL-2 melanoma; SNB-75 CNS; SR leukemia; T-47D breast; CCRF-CEM leukemia; NCI-H226 lung; NCI-H522 lung; UACC-257 melanoma; 786-0 renal; NCI/ADR-RES ovarian; MDA-N; HCC-2998 colon.
What all share (assay): DTP human tumour cell line panel, 48 h

Usually TGI stands for the concentration at which net growth stops. On to `O=C(Nc1sccc1S(=O)(=O)c1ccc(Cl)cc1)c1ccc(Cl)cc1Cl`, for which the total growth inhibition concentration (TGI) in the assay with SK-MEL-2 melanoma, in the assay with SNB-75 CNS, with SR leukemia, with T-47D breast, with CCRF-CEM leukemia and in the assay with NCI-H226 lung was more than 100 µM in each case. Besides, the TGI in the assay with NCI-H522 lung, in the assay on UACC-257 melanoma, with 786-0 renal and in the assay with NCI/ADR-RES ovarian was more than 100 µM each time.

`C[As](C)SCC(NC(=O)CCC(N)C(=O)O)C(=O)NCC(=O)O.Cl.c1ccncc1` (stereo not given): the concentration for total growth inhibition (TGI) in the assay on SK-MEL-2 melanoma stood at 1.67 µM; in the assay with SNB-75 CNS, 14.8 µM; in the assay on SR leukemia, 0.076 µM; with MDA-N it was 1.51 µM; in the assay with T-47D breast, 1.19 µM; in the assay with HCC-2998 colon, 0.813 µM. Besides, the TGI in the assay with CCRF-CEM leukemia was found to be 6.31 µM; in the assay on NCI-H226 lung, 1.19 µM; in the assay with NCI-H522 lung it was 0.267 µM; in the assay on UACC-257 melanoma, 2.46 µM; in the assay on 786-0 renal it was 1.3 µM; in the assay with NCI/ADR-RES ovarian it was 9.71 µM.

Regarding `COC[C@@H]1Cc2cc(OC)c3c(c2[C@H](c2ccc(OC)c(OC)c2)[C@H]1COC)OCO3`, the TGI in the assay with SK-MEL-2 melanoma is more than 100 µM; in the assay on SNB-75 CNS, 83.2 µM; in the assay with SR leukemia it was more than 100 µM; in the assay with HCC-2998 colon, more than 100 µM; in the assay with CCRF-CEM leukemia, more than 100 µM; in the assay with NCI-H522 lung it was more than 100 µM. Moreover, the TGI in the assay on UACC-257 melanoma was more than 100 µM.

Consider `O=CNNC(=O)CSc1nc2ccc(I)cc2c(=O)n1Cc1ccccc1`, for which the total growth inhibition concentration (TGI) was 44.4 µM in the assay with SK-MEL-2 melanoma; more than 100 µM in the assay on SNB-75 CNS; more than 100 µM in the assay on SR leukemia; more than 100 µM with MDA-N; more than 100 µM in the assay with T-47D breast; 81.6 µM in the assay on HCC-2998 colon. Also, the concentration for total growth inhibition (TGI) is more than 100 µM with CCRF-CEM leukemia; more than 100 µM with NCI-H226 lung; 57.4 µM in the assay on NCI-H522 lung; 68.3 µM with UACC-257 melanoma; more than 100 µM in the assay on 786-0 renal; more than 100 µM in the assay on NCI/ADR-RES ovarian.

`COC1=CCC2=C(CCN(C(=O)C3CC3)C2Cc2ccc(OC)c(O)c2)C1` (stereo not given): the concentration for total growth inhibition (TGI) in the assay with SK-MEL-2 melanoma was more than 100 µM; with SNB-75 CNS, 67.4 µM; with SR leukemia, 82.6 µM; in the assay with T-47D breast it was 70.9 µM; in the assay on HCC-2998 colon, more than 100 µM; in the assay with CCRF-CEM leukemia, more than 100 µM. The TGI with NCI-H226 lung is more than 100 µM; in the assay with NCI-H522 lung, 82.4 µM; in the assay on UACC-257 melanoma it was more than 100 µM; in the assay on 786-0 renal, more than 100 µM; in the assay with NCI/ADR-RES ovarian it was 55.4 µM.

Broadly, the GI50 is the concentration giving 50% growth inhibition. On to `O=CN(O)CC(=O)O.[Ni]`, for which the TGI in the assay on SNB-75 CNS, in the assay on SR leukemia, with MDA-N, in the assay with T-47D breast, in the assay on HCC-2998 colon and in the assay on CCRF-CEM leukemia was more than 100 µM throughout. Further, the TGI with NCI-H226 lung, in the assay with NCI-H522 lung, with UACC-257 melanoma, in the assay on 786-0 renal and in the assay on NCI/ADR-RES ovarian was more than 100 µM each time. Moreover, the GI50 in the assay with NCI-H522 lung is more than 100 µM.

As for `O=C1/C(=C/c2ccc3c(c2)OCO3)Sc2scc(-c3ccc(O)c(O)c3)[n+]21`, the concentration for total growth inhibition (TGI) in the assay on SK-MEL-2 melanoma was 24.8 µM; with SNB-75 CNS it was 5.54 µM; in the assay with MDA-N it was 9.81 µM; in the assay on T-47D breast it was more than 100 µM; in the assay on HCC-2998 colon, 3.64 µM; in the assay with NCI-H226 lung it was more than 100 µM. Besides, the values for the total growth inhibition concentration (TGI) with UACC-257 melanoma, in the assay with 786-0 renal and in the assay on NCI/ADR-RES ovarian were 9.35 µM, 5.48 µM and 4.48 µM, respectively.

For the molecule `CC(=O)C1=C(C)N(c2ccc(C)cc2)C2(O)C=CC(=O)C3=C(O)c4ccccc4C(=O)C312` (stereo not given), the TGI in the assay with SK-MEL-2 melanoma is 30.3 µM; with SNB-75 CNS, 49.9 µM; in the assay with SR leukemia, more than 100 µM; in the assay with T-47D breast, more than 100 µM; with HCC-2998 colon it was 42.2 µM; in the assay with NCI-H226 lung, 64.4 µM. Moreover, the TGI was 32.5 µM with NCI-H522 lung, 27.1 µM with UACC-257 melanoma, more than 100 µM with 786-0 renal and more than 100 µM with NCI/ADR-RES ovarian.

With `Nc1nccc2c1ncn2C1C=C(CO)C(O)C1O` (stereo not given), the TGI in the assay with SK-MEL-2 melanoma is 99.1 µM; with SNB-75 CNS it was more than 1000 µM; in the assay with HCC-2998 colon, more than 1000 µM; in the assay on CCRF-CEM leukemia, more than 1000 µM; in the assay with NCI-H226 lung, more than 1000 µM; in the assay on NCI-H522 lung, more than 1000 µM. Also, the TGI in the assay with UACC-257 melanoma is more than 1000 µM. Moreover, the GI50 in the assay on SNB-75 CNS was more than 1000 µM; in the assay with HCC-2998 colon, 3.28 µM; with CCRF-CEM leukemia, 1.91 µM; in the assay with NCI-H226 lung, more than 1000 µM; with NCI-H522 lung, more than 1000 µM; in the assay on UACC-257 melanoma, 3.28 µM.

Turning to `CC(=O)OCC1OC(N2C(=O)CC(N)=Nc3ccccc32)C(OC(C)=O)C(OC(C)=O)C1OC(C)=O` (stereo not given), the total growth inhibition concentration (TGI) in the assay with SK-MEL-2 melanoma is more than 100 µM; in the assay with SNB-75 CNS, more than 100 µM; in the assay with SR leukemia it was more than 100 µM; in the assay on MDA-N, more than 100 µM; in the assay with T-47D breast it was 82.2 µM; in the assay with HCC-2998 colon, more than 100 µM. Also, the TGI in the assay on CCRF-CEM leukemia, with UACC-257 melanoma, in the assay on 786-0 renal and with NCI/ADR-RES ovarian was more than 100 µM in each case.

Regarding `CC(C)(C)C(=O)CC(=O)C(F)(F)C(F)(F)C(F)(F)F.CC(C)(C)C(=O)CC(=O)C(F)(F)C(F)(F)C(F)(F)F.CC(C)(C)C(=O)CC(=O)C(F)(F)C(F)(F)C(F)(F)F.[Er]`, the TGI in the assay on SNB-75 CNS, in the assay with SR leukemia, in the assay on MDA-N, in the assay on T-47D breast, with HCC-2998 colon and in the assay on CCRF-CEM leukemia was more than 100 µM in each case. The TGI in the assay on NCI-H226 lung, in the assay on NCI-H522 lung and with 786-0 renal was more than 100 µM throughout. In addition, the GI50 with HCC-2998 colon was 43.5 µM; in the assay with NCI-H522 lung it was 94 µM.

Turning to `CN(CCNC(=O)c1cn(C)c2c1ccc1cc(Cl)ccc12)CCNC(=O)c1cn(C)c2c1ccc1cc(Cl)ccc12`, the TGI was determined as 13.7 µM in the assay on SK-MEL-2 melanoma; 38 µM with SR leukemia; 3.41 µM in the assay on MDA-N; 66 µM in the assay with CCRF-CEM leukemia; 77.8 µM in the assay on NCI-H226 lung; 3.68 µM in the assay on NCI-H522 lung. The TGI with UACC-257 melanoma worked out at 67.4 µM; in the assay on NCI/ADR-RES ovarian, 3.6 µM.
